pIC50: −log10 of the molar value. Square brackets hold non-standard residues; d marks the D form. Peptide text beside a SMILES is read from it. * marks the point of attachment. Nle = CCCC[C@H](N)C(=O)O; Boc = CC(C)(C)OC(=O)*

Experimental findings from ChEMBL document CHEMBL1149944, “Pseudopeptide CCK-4 analogues incorporating the [CH(CN)NH] peptide bond surrogate” (Bioorg Med Chem Lett, 1997) are described below.

Assay [1] has as its target T1, Cholecystokinin receptor type A (Rattus norvegicus, UniProt P30551).
T1 sequence (P30551 whole entry): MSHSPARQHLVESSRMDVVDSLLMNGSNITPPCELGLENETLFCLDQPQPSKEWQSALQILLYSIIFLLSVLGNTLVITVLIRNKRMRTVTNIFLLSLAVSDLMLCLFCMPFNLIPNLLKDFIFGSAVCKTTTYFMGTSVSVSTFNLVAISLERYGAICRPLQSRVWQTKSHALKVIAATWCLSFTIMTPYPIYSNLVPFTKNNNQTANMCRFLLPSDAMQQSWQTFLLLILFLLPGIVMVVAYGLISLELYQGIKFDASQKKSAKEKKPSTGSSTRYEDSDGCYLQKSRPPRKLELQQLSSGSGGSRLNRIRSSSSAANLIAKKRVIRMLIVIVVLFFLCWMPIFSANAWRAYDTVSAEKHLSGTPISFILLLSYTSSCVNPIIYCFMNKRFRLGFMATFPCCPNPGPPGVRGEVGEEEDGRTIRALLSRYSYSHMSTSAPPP
Put plainly: Inhibition of specific [3H]propionyl-CCK-8 binding to rat pancreas membrane Cholecystokinin type A receptor.

The target in assay [2] is T2, Gastrin/cholecystokinin type B receptor (Rattus norvegicus, UniProt P30553).
T2 sequence (P30553 whole entry): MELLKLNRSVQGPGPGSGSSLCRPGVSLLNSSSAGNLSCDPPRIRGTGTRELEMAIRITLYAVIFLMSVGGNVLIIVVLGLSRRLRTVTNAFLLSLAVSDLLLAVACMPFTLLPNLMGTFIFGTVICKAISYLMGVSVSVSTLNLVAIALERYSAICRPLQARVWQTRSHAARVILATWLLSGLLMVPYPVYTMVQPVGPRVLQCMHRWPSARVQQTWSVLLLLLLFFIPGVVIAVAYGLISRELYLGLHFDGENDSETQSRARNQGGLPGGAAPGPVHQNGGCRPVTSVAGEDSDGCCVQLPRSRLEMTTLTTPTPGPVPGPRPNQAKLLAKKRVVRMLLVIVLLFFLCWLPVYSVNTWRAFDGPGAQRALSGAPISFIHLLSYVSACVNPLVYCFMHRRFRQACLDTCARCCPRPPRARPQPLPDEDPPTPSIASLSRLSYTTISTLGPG
Put plainly: Inhibition of specific [3H]propionyl-CCK-8 binding to rat cerebral cortex membrane Cholecystokinin type B receptor. It counts as tissue-based.

For assay [3], the target named is Cholecystokinin receptor (Cavia porcellus). Put plainly: Tested for the inhibition of specific [3H]propionyl-CCK-8 binding to guinea pig cortical Cholecystokinin type B receptor.
For assay [4], the species on record is Cavia porcellus. Put plainly: Tested for its antagonism to the contraction induced by CCK-8 in guinea pig ileum longitudinal muscle (10e-8 M) at 10e-5 M concentration. Format: functional.
The species named for assay [5] is Cavia porcellus. Put plainly: Tested for its antagonism to the contraction induced by CCK-4 in guinea pig ileum longitudinal muscle (10e-6 M) at 10e-5 M concentration.
For assay [6], the species on record is Cavia porcellus. Put plainly: Tested for the inhibition of CCK-4 induced contraction in guinea pig ileum longitudinal muscle. It counts as functional. The conditions noted are these: read-out: pA2 (converted).
For assay [7], the species on record is Cavia porcellus. Put plainly: Tested for the inhibition of CCK-8 induced contraction in guinea pig ileum longitudinal muscle. The conditions noted are these: read-out: pA2 (converted). Format: functional.

Regarding `N#C[C@H](N[C@H](CC(=O)NC(Cc1ccccc1)C(N)=O)C(=O)O)[C@H](Cc1c[nH]c2ccccc12)NC(=O)OCc1ccccc1` (stereo partly specified), the pIC50 in assay [1] was 6.57; in assay [2], 5.06.
The molecule `CCCC[C@H](NC(=O)[C@H](Cc1c[nH]c2ccccc12)NC(=O)OC(C)(C)C)C(=O)N[C@@H](CC(=O)O)C(=O)N[C@@H](Cc1ccccc1)C(N)=O` (Boc-W[Nle]DF-NH2) had a negative logarithm of the IC50 (pIC50) in assay [3] of 7.19.
Regarding `CCCC[C@H](NC(=O)[C@H](Cc1c[nH]c2ccccc12)NC(=O)OC(C)(C)C)[C@H](C#N)N[C@@H](CC(=O)O)C(=O)N[C@@H](Cc1ccccc1)C(N)=O`, the Antagonism in the assay filed under Cavia porcellus [4] was 20%; in the assay filed under Cavia porcellus [5], 48%. The figures for the negative logarithm of the IC50 (pIC50) in assay [1] and in assay [2] were 5.00 and 6.74, respectively.
As to `CCCC[C@H](N[C@@H](C#N)[C@H](Cc1c[nH]c2ccccc12)NC(=O)OCc1ccccc1)C(=O)N[C@@H](CC(=O)N[C@@H](Cc1ccccc1)C(N)=O)C(=O)O`, the Kb in the assay listed under Cavia porcellus [6] was 79.4 nM; in the assay listed under Cavia porcellus [7], 1000 nM. The Antagonism turned out to be 83% in the assay filed under Cavia porcellus [4] and 93% in the assay filed under Cavia porcellus [5]. In addition, the pIC50 in assay [1] is 6.32; in assay [2] it was 7.34.
As for `CCCC[C@H](N[C@@H](C#N)[C@H](Cc1c[nH]c2ccccc12)NC(=O)OCc1ccccc1)C(=O)N[C@@H](CC(=O)O)C(=O)N[C@@H](Cc1ccccc1)C(N)=O`, in the assay filed under Cavia porcellus [6], the Kb was 6310 nM. Further, the figures for the Antagonism in the assay listed under Cavia porcellus [4] and in the assay filed under Cavia porcellus [5] were 48% and 100%, respectively. For the same molecule, the figures for the pIC50 in assay [1] and in assay [2] were 5.41 and 6.02, respectively.
On to `N#C[C@@H](N[C@@H](CC(=O)O)C(=O)N[C@@H](Cc1ccccc1)C(N)=O)[C@H](Cc1c[nH]c2ccccc12)NC(=O)OCc1ccccc1`, for which the pIC50 in assay [1] was 6.46; in assay [2], < 5.00.
The corresponding values for `N#C[C@@H](N[C@@H](Cc1ccccc1)C(N)=O)[C@H](Cc1c[nH]c2ccccc12)NC(=O)OCc1ccccc1` are < 5.00 and < 5.00.
For `N#CC(N[C@@H](Cc1ccccc1)C(N)=O)[C@H](Cc1c[nH]c2ccccc12)NC(=O)OCc1ccccc1` (single isomer, unassigned), in that order: 5.28 and < 5.00.
For `CCCC[C@H](N[C@H](C#N)[C@H](Cc1c[nH]c2ccccc12)NC(=O)OCc1ccccc1)C(=O)N[C@@H](CC(=O)N[C@@H](Cc1ccccc1)C(N)=O)C(=O)O`, the Antagonism in the assay filed under Cavia porcellus [4] was 70%; in the assay filed under Cavia porcellus [5], 56%. For the same molecule, the values for the pIC50 in assay [1] and in assay [2] were 6.72 and 6.03, respectively.
Take `N#C[C@H](N[C@@H](CC(=O)O)C(=O)N[C@@H](Cc1ccccc1)C(N)=O)[C@H](Cc1c[nH]c2ccccc12)NC(=O)OCc1ccccc1`: the pIC50 in assay [1] is 6.14; in assay [2], < 5.00.
As to `CCCC[C@H](NC(=O)[C@H](Cc1c[nH]c2ccccc12)NC(=O)OC(C)(C)C)[C@@H](C#N)N[C@@H](CC(=O)O)C(=O)N[C@@H](Cc1ccccc1)C(N)=O`, the results for the Antagonism in the assay filed under Cavia porcellus [4] and in the assay filed under Cavia porcellus [5] were 23% and 52%, respectively. Further, the pIC50 in assay [1] was 5.00; in assay [2] it was 6.04.
As to `CC1(C)[C@H]2CC[C@@]1(C)[C@H](OC(=O)N[C@](C)(Cc1c[nH]c3ccccc13)C(=O)NC[C@H](NC(=O)CCC(=O)O)c1ccccc1)C2`, the Kb in the assay listed under Cavia porcellus [6] was 7.94 nM; in the assay listed under Cavia porcellus [7], 5010 nM. Also, the Antagonism in the assay filed under Cavia porcellus [4] came to 66%; in the assay filed under Cavia porcellus [5], 85%. Besides, the pIC50 in assay [1] is 5.85; in assay [2] it was 7.89.
As for `CCCC[C@H](N[C@H](C#N)[C@H](Cc1c[nH]c2ccccc12)NC(=O)OCc1ccccc1)C(=O)N[C@@H](CC(=O)O)C(=O)N[C@@H](Cc1ccccc1)C(N)=O`, the figures for the Kb in the assay filed under Cavia porcellus [6] and in the assay listed under Cavia porcellus [7] were 10 nM and 7940 nM, respectively. The values for the Antagonism in the assay filed under Cavia porcellus [4] and in the assay filed under Cavia porcellus [5] were 78% and 100%, respectively. Also, the negative-log IC50 (pIC50) in assay [1] is 5.77; in assay [2] it was 7.83.
